# According to patent US10392391B2 (Vertex Pharmaceuticals Incorporated, priority 2012, dated 2019):
# Biological target: ATR kinase (full-length ATR) (Homo sapiens (Human), UniProt Q13535)
# Assay: ATR inhibition assay (radioactive-phosphate incorporation)
# Type: biochemical
# Settings: not given
# Method in brief: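 Radiometric 33P incorporation by 5 nM full-length ATR into 800 μM target peptide with 10 μM [γ-33P]ATP, in 50 mM Tris/HCl pH 7.5, 10 mM MgCl2, 1 mM DTT, 7% DMSO, 25° C. Compound pre-incubated 10 minutes; reaction stopped after 24 hours, captured on phosphocellulose. Ki(app) from non-linear regression of initial rates.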
# Chain of ATR kinase (full-length ATR) (Q13535 whole entry): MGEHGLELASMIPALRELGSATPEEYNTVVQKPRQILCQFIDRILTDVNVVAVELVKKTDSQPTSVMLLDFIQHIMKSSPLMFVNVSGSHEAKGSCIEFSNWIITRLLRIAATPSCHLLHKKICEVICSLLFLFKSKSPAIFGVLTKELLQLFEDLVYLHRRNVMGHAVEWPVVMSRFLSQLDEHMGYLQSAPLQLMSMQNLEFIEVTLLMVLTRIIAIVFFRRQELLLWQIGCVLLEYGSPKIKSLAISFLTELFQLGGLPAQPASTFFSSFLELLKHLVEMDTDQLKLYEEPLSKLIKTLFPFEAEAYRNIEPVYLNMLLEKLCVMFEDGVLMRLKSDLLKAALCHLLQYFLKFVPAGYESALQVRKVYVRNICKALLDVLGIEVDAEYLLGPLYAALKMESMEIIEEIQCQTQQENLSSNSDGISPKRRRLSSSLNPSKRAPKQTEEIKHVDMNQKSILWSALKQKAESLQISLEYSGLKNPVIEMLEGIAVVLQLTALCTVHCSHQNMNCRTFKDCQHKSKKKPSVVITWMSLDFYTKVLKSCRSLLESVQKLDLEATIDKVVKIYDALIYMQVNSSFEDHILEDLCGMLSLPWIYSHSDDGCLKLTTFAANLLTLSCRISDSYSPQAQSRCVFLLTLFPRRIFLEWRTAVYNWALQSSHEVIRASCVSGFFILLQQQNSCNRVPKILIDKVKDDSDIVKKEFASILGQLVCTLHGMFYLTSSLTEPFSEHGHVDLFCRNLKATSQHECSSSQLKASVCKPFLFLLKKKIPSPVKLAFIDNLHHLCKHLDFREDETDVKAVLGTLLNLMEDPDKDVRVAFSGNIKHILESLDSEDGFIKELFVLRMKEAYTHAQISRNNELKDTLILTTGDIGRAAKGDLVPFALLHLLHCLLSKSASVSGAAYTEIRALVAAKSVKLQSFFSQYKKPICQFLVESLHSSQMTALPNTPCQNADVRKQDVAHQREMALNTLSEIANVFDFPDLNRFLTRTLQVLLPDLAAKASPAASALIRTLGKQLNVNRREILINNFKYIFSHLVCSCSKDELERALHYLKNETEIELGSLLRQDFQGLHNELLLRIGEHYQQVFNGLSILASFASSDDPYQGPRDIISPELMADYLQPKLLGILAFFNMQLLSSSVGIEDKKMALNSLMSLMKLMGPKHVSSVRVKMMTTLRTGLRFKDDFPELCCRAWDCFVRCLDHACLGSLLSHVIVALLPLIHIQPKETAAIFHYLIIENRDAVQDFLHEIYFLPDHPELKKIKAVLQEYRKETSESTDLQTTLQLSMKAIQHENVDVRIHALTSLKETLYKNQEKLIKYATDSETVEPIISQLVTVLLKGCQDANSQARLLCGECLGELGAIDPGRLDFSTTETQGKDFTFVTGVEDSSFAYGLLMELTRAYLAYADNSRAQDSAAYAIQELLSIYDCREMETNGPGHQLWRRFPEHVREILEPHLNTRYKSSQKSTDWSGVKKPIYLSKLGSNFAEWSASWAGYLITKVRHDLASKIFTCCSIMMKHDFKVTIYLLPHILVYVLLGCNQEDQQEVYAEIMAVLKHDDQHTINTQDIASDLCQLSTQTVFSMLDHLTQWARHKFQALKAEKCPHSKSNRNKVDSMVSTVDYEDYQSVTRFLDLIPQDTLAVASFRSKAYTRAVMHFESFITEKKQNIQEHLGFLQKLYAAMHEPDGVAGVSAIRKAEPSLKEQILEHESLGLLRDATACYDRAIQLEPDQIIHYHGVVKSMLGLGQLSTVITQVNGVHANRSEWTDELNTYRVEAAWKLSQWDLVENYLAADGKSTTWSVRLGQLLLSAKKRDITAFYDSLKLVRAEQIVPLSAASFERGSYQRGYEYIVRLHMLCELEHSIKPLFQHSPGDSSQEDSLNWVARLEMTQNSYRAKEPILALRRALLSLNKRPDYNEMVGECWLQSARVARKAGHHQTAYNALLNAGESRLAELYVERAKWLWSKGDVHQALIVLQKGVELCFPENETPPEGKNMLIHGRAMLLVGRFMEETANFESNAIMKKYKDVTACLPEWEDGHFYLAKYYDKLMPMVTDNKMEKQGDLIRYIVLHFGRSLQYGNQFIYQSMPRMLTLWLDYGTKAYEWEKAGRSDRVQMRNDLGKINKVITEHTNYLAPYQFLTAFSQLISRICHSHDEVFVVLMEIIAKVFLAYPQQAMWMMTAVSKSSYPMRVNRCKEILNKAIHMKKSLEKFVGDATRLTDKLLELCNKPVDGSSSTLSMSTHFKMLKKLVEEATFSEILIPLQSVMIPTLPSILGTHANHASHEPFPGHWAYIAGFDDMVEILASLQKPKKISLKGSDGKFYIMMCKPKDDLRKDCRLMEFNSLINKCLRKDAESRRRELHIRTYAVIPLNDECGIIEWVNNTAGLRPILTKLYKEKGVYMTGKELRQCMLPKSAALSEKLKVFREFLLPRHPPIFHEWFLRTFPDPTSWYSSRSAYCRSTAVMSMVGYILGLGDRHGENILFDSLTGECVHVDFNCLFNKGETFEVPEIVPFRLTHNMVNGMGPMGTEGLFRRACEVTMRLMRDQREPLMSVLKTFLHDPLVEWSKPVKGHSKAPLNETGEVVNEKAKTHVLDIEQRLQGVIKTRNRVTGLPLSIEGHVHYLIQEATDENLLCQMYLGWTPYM
row,Structure (SMILES),Ki
1,"CC(C)(C#N)c1cnc2c(C(=O)Nc3cnccc3N3CCN(C4COC4)CC3)c(N)nn2c1 [I-N-142, 2-amino-6-(2-cyanopropan-2-yl)-N-(4-(4-(oxetan-3-yl)piperazin-1-yl)pyridin-3-yl)pyrazolo[1,5-a]pyrimidine-3-carboxamide]",1 to 5 µM

# Same assay, conditions: Ki(app), 5 nM full-length ATR, 10 μM ATP, 25° C.
row,Structure (SMILES),Ki
1,"Nc1nn2cc(F)cnc2c1C(=O)Nc1cncc(F)c1N1CCC(CN2CCOCC2)CC1 [I-N-149, 2-amino-6-fluoro-N-(5-fluoro-4-(4-(morpholinomethyl)piperidin-1-yl)pyridin-3-yl)pyrazolo[1,5-a]pyrimidine-3-carboxamide]",0.01 to 1 µM
2,"CC1CN(c2ccncc2NC(=O)c2c(N)nn3cc(Cl)cnc23)CCN1C (stereo not drawn) [I-N-54, 2-amino-6-chloro-N-(4-(3,4-dimethylpiperazin-1-yl)pyridin-3-yl)pyrazolo[1,5-a]pyrimidine-3-carboxamide]",0.01 to 1 µM
3,"Nc1nn2cc(F)cnc2c1C(=O)Nc1cncc(F)c1N1CCN2C(=O)OC[C@@H]2C1 [I-N-248, (S)-2-amino-6-fluoro-N-(5-fluoro-4-(3-oxotetrahydro-1H-oxazolo[3,4-a]pyrazin-7(3H)-yl)pyridin-3-yl)pyrazolo[1,5-a]pyrimidine-3-carboxamide]",0.01 to 1 µM
4,"Nc1nn2cc(F)cnc2c1C(=O)Nc1cnccc1N1CCC(c2nnco2)CC1 [I-N-268, N-(4-(4-(1,3,4-oxadiazol-2-yl)piperidin-1-yl)pyridin-3-yl)-2-amino-6-fluoropyrazolo[1,5-a]pyrimidine-3-carboxamide]",0.01 to 1 µM
5,"Nc1nn2cc(F)cnc2c1C(=O)Nc1cnccc1N1CC(=O)N2CCCC2C1 (stereo not drawn) [I-N-222, 2-amino-6-fluoro-N-(4-(4-oxohexahydropyrrolo[1,2-a]pyrazin-2(1H)-yl)pyridin-3-yl)pyrazolo[1,5-a]pyrimidine-3-carboxamide]",0.01 to 1 µM
6,"CN(C)CCOc1cc(C(F)(F)F)ncc1NC(=O)c1c(N)nn2cc(Cl)cnc12 [I-O-71, 2-amino-6-chloro-N-(4-(2-(dimethylamino)ethoxy)-6-(trifluoromethyl)pyridin-3-yl)pyrazolo[1,5-a]pyrimidine-3-carboxamide]",0.01 to 1 µM
7,"CN1C2CCC1CN(C(=O)C1CCN(c3c(F)cncc3NC(=O)c3c(N)nn4cc(F)cnc34)CC1)C2 [I-G-52, 2-amino-6-fluoro-N-(5-fluoro-4-(4-(8-methyl-3,8-diazabicyclo[3.2.1]octane-3-carbonyl)piperidin-1-yl)pyridin-3-yl)pyrazolo[1,5-a]pyrimidine-3-carboxamide]",0.01 to 1 µM
8,"Nc1nn2cc(F)cnc2c1C(=O)Nc1cnccc1N1CCN([C@@H]2CCOC2)CC1 [I-N-10, (R)-2-amino-6-fluoro-N-(4-(4-(tetrahydrofuran-3-yl)piperazin-1-yl)pyridin-3-yl)pyrazolo[1,5-a]pyrimidine-3-carboxamide]",0.01 to 1 µM
9,"N#CCc1cnc2c(C(=O)Nc3cnccc3N3CCOCC3)c(N)nn2c1 [I-N-81, 2-amino-6-(cyanomethyl)-N-(4-morpholinopyridin-3-yl)pyrazolo[1,5-a]pyrimidine-3-carboxamide]",0.01 to 1 µM
10,"Nc1nn2cc(F)cnc2c1C(=O)Nc1cnccc1C1CC1 [I-C-42, 2-amino-N-(4-cyclopropylpyridin-3-yl)-6-fluoropyrazolo[1,5-a]pyrimidine-3-carboxamide]",0.01 to 1 µM
11,"Nc1nn2cc(F)cnc2c1C(=O)Nc1cncc2c1CCNC2 [I-C-7, 2-amino-6-fluoro-N-(5,6,7,8-tetrahydro-2,7-naphthyridin-4-yl)pyrazolo[1,5-a]pyrimidine-3-carboxamide]",0.01 to 1 µM
12,"CN1CCN(C(=O)C2(C)CCN(c3c(F)cncc3NC(=O)c3c(N)nn4cc(F)cnc34)CC2)CC1 [I-G-54, 2-amino-6-fluoro-N-(5-fluoro-4-(4-methyl-4-(4-methylpiperazine-1-carbonyl)piperidin-1-yl)pyridin-3-yl)pyrazolo[1,5-a]pyrimidine-3-carboxamide]",0.01 to 1 µM
13,"CN1CCOC[C@@H]1c1ccc(-c2ccncc2NC(=O)c2c(N)nn3cc(F)cnc23)cc1 [I-C-66, (S)-2-amino-6-fluoro-N-(4-(4-(4-methylmorpholin-3-yl)phenyl)pyridin-3-yl)pyrazolo[1,5-a]pyrimidine-3-carboxamide]",0.01 to 1 µM
14,"CN(C)CCCN(C)C(=O)C1CCN(c2c(F)cncc2NC(=O)c2c(N)nn3cc(F)cnc23)CC1 [I-G-16, 2-amino-N-(4-(4-((3-(dimethylamino)propyl)(methyl)carbamoyl)piperidin-1-yl)-5-fluoropyridin-3-yl)-6-fluoropyrazolo[1,5-a]pyrimidine-3-carboxamide]",0.01 to 1 µM
15,"CC(C)(O)C1CCN(c2ccncc2NC(=O)c2c(N)nn3cc(Cl)cnc23)CC1 [I-N-69, 2-amino-6-chloro-N-(4-(4-(2-hydroxypropan-2-yl)piperidin-1-yl)pyridin-3-yl)pyrazolo[1,5-a]pyrimidine-3-carboxamide]",0.01 to 1 µM
16,"Nc1nn2cc(Cl)cnc2c1C(=O)Nc1cnccc1O[C@@H]1CCNC1 [I-O-77, (R)-2-amino-6-chloro-N-(4-(pyrrolidin-3-yloxy)pyridin-3-yl)pyrazolo[1,5-a]pyrimidine-3-carboxamide]",0.01 to 1 µM

row,Structure (SMILES),Ki
1,"Nc1nn2cc(F)cnc2c1C(=O)Nc1cnccc1O[C@H]1Cc2nccn2C1 [I-O-16, (S)-2-amino-N-(4-((6,7-dihydro-5H-pyrrolo[1,2-a]imidazol-6-yl)oxy)pyridin-3-yl)-6-fluoropyrazolo[1,5-a]pyrimidine-3-carboxamide]",0.01 to 1 µM
2,"N#CCc1cnc2c(C(=O)Nc3cnccc3N3CCC(O)CC3)c(N)nn2c1 [I-N-83, 2-amino-6-(cyanomethyl)-N-(4-(4-hydroxypiperidin-1-yl)pyridin-3-yl)pyrazolo[1,5-a]pyrimidine-3-carboxamide]",< 0.01 µM
3,"CN1CC2(CCN(c3c(F)cncc3NC(=O)c3c(N)nn4cc(F)cnc34)CC2)OC1=O [I-N-229, 2-amino-6-fluoro-N-(5-fluoro-4-(3-methyl-2-oxo-1-oxa-3,8-diazaspiro[4.5]decan-8-yl)pyridin-3-yl)pyrazolo[1,5-a]pyrimidine-3-carboxamide]",0.01 to 1 µM
4,"CN1CCOC2(CCN(c3c(F)cncc3NC(=O)c3c(N)nn4cc(F)cnc34)CC2)C1 [I-N-272, 2-amino-6-fluoro-N-(5-fluoro-4-(4-methyl-1-oxa-4,9-diazaspiro[5.5]undecan-9-yl)pyridin-3-yl)pyrazolo[1,5-a]pyrimidine-3-carboxamide]",0.01 to 1 µM
5,"Nc1nn2cc(F)cnc2c1C(=O)Nc1cnccc1N1CCN(C2CCOC2)CC1 (racemic) [I-N-19, (R,S)-2-amino-6-fluoro-N-(4-(4-(tetrahydrofuran-3-yl)piperazin-1-yl)pyridin-3-yl)pyrazolo[1,5-a]pyrimidine-3-carboxamide]",0.01 to 1 µM
6,"Nc1nn2cc(F)cnc2c1C(=O)Nc1cncc(F)c1N1CCC(C(=O)N2CCC(N3CCCCC3)CC2)CC1 [I-G-60, N-(4-(4-([1,4′-bipiperidine]-1′-carbonyl)piperidin-1-yl)-5-fluoropyridin-3-yl)-2-amino-6-fluoropyrazolo[1,5-a]pyrimidine-3-carboxamide]",0.01 to 1 µM
7,"Nc1nn2cc(F)cnc2c1C(=O)Nc1cncc(F)c1N1CCN(C(=O)C2COC2)CC1 [I-N-278, 2-amino-6-fluoro-N-(5-fluoro-4-(4-(oxetane-3-carbonyl)piperazin-1-yl)pyridin-3-yl)pyrazolo[1,5-a]pyrimidine-3-carboxamide]",0.01 to 1 µM
8,"Nc1nn2cc(F)cnc2c1C(=O)Nc1cncc(F)c1N1CCC(C(=O)N2CC3(COC3)C2)CC1 [I-G-72, N-(4-(4-(2-oxa-6-azaspiro[3.3]heptane-6-carbonyl)piperidin-1-yl)-5-fluoropyridin-3-yl)-2-amino-6-fluoropyrazolo[1,5-a]pyrimidine-3-carboxamide]",0.01 to 1 µM
9,"N#CCc1cnc2c(C(=O)Nc3cnccc3N3CCCCC3)c(N)nn2c1 [I-N-84, 2-amino-6-(cyanomethyl)-N-(4-(piperidin-1-yl)pyridin-3-yl)pyrazolo[1,5-a]pyrimidine-3-carboxamide]",< 0.01 µM
10,"N#CC1CN(C(=O)C2CCN(c3ccncc3NC(=O)c3c(N)nn4cc(F)cnc34)CC2)C1 [I-G-81, 2-amino-N-(4-(4-(3-cyanoazetidine-1-carbonyl)piperidin-1-yl)pyridin-3-yl)-6-fluoropyrazolo[1,5-a]pyrimidine-3-carboxamide]",0.01 to 1 µM
11,"Nc1nn2cc(F)cnc2c1C(=O)Nc1cncc(F)c1N1CCN(C(=O)C2CC2)CC1 [I-N-276, 2-amino-N-(4-(4-(cyclopropanecarbonyl)piperazin-1-yl)-5-fluoropyridin-3-yl)-6-fluoropyrazolo[1,5-a]pyrimidine-3-carboxamide]",0.01 to 1 µM
12,"CC(C#N)c1cnc2c(C(=O)Nc3cnccc3N3CCN(C)CC3)c(N)nn2c1 (stereo not drawn) [I-N-78, 2-amino-6-(1-cyanoethyl)-N-(4-(4-methylpiperazin-1-yl)pyridin-3-yl)pyrazolo[1,5-a]pyrimidine-3-carboxamide]",0.01 to 1 µM
13,"Cc1cncc(NC(=O)c2c(N)nn3cc(F)cnc23)c1N1CCC(C(=O)N2CCNCC2)CC1 [I-G-56, 2-amino-6-fluoro-N-(5-methyl-4-(4-(piperazine-1-carbonyl)piperidin-1-yl)pyridin-3-yl)pyrazolo[1,5-a]pyrimidine-3-carboxamide]",0.01 to 1 µM
14,"CC(C#N)c1cnc2c(C(=O)Nc3cnccc3N3CCN(C4COC4)CC3)c(N)nn2c1 (stereo not drawn) [I-N-143, 2-amino-6-(1-cyanoethyl)-N-(4-(4-(oxetan-3-yl)piperazin-1-yl)pyridin-3-yl)pyrazolo[1,5-a]pyrimidine-3-carboxamide]",0.01 to 1 µM
15,"Nc1nn2cc(F)cnc2c1C(=O)Nc1cncc(F)c1N1CCN(C(=O)C2CNC2)CC1 [I-N-168, 2-amino-N-(4-(4-(azetidine-3-carbonyl)piperazin-1-yl)-5-fluoropyridin-3-yl)-6-fluoropyrazolo[1,5-a]pyrimidine-3-carboxamide]",0.01 to 1 µM
16,"Nc1nn2cc(F)cnc2c1C(=O)Nc1cnccc1N1CCC(C(=O)N2CCOCC2)CC1 [I-G-85, 2-amino-6-fluoro-N-(4-(4-(morpholine-4-carbonyl)piperidin-1-yl)pyridin-3-yl)pyrazolo[1,5-a]pyrimidine-3-carboxamide]",0.01 to 1 µM
